Laboratory results as given in BindingDB's records for doi:10.1002/cbic.200800304 (Research Institute, Hospital For Sick Children, 2008).

Molecular target: T1, Lysosomal acid glucosylceramidase (Homo sapiens, UniProt P04062)
T1 sequence (P04062 whole entry): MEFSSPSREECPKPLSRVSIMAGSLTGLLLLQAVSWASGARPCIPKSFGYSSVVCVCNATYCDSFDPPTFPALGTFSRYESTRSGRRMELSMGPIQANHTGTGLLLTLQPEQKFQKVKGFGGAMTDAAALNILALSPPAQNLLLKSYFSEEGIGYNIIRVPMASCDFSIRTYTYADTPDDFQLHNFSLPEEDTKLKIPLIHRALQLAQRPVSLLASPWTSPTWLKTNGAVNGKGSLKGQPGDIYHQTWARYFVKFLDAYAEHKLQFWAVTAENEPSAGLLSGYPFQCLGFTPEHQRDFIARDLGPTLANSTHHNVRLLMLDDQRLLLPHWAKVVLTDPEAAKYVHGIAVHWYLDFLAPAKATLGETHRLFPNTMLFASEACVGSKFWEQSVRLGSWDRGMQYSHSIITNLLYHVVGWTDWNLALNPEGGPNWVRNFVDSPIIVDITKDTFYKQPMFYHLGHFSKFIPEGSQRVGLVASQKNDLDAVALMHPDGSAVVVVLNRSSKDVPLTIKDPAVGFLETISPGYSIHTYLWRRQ
Assay: Inhibiton Assay
Details: pH 5.5; 37 °C
Description: Beta-glucocerebrosidase (GCase) activity was measured by release of 4-methylumbelliferyl fluorophore from MUClc.

| SMILES | IC50 [µM] |
| --- | --- |
| Cc1ccc(Sc2cccc3nc(N)nc(N)c23)cc1 | 7.8 |
| CC(C)(C)C(=O)Nc1ccncc1 [2,2-dimethyl-N-(4-pyridinyl)propanamide, 2b] | > 400 |
| CCOc1ccc2c(N)nc(N)nc2c1OCC [7,8-diethoxy-quinazoline 2,4-diamine, 1b] | 22 |

Further lines, results first:

| IC50 [µM] | SMILES |
| --- | --- |
| 61 | Nc1nc(N)c2cc([N+](=O)[O-])ccc2n1 [2,4-diamino-6-nitro-quinazoline, 1a] |
| 4.7 | O=C(Nc1ccncc1)c1ccc(Oc2cc(Cl)cc(Cl)c2)o1 [5-(3,5-dichlorophenoxy)-N-(4-pyrdinyl)-2-furamide, 2] |
